Experiment in all cases: growth of human tumour cells (NCI), 48 h
For assay [1], the system named is OVCAR-8 ovarian.
In assay [2] the test system is M14 melanoma.
The test system of assay [3] is UO-31 renal.
The test system of assay [4] is NCI-H522 lung.
Assay [5] has as its system HT29 colon.
Assay [6] deals with K-562 leukemia.
The test system of assay [7] is NCI/ADR-RES ovarian.
Assay [8] has as its system OVCAR-4 ovarian.
Assay [9] relates to MALME-3M melanoma.
The test system of assay [10] is SR leukemia.

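Growth conditions: 96-well plates. Treatment: test compound, 48 hours, 5 concentrations. Analysis: linear interpolation between bracketing concentrations; unreached endpoints set to highest concentration. GI50 is the concentration that inhibits growth by half. Definition used: TGI = concentration required for complete inhibition of growth.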

The text below walks through data of PubChem BioAssay (NCI).

With `Cc1cn2c(/C=N/N=C(N)N)c(-c3ccsc3)nc2s1`, the GI50 in assay [1] was 16.2 µM; in [2], 11.5 µM; in [3] it was 25.2 µM; in [4], 28.4 µM; in assay [5], 18.6 µM; in assay [6], 3.82 µM. In addition, the GI50 in assay [7] is 22.5 µM. Moreover, the TGI in [1] is 34.4 µM; in assay [2], 37.3 µM; in assay [3], more than 100 µM; in [4] it was more than 100 µM; in [5], more than 100 µM; in assay [6], more than 100 µM. Besides, the TGI in [7] stood at 51.5 µM.

For the molecule `CC(=O)/C(=C\c1c(-c2ccccc2)[nH]c2ccccc12)S(=O)(=O)c1ccccc1`, the GI50 is 2.51 µM in assay [1]; 0.513 µM in [2]; 1.58 µM in assay [3]; 1.17 µM in [4]; 0.576 µM in [5]; 3.53 µM in [8]. The GI50 in assay [6] was 0.406 µM; in assay [9], 1.98 µM; in assay [7] it was 0.513 µM. Further, the TGI in assay [1] is 9.89 µM; in assay [2], 2.15 µM; in assay [3] it was 3.54 µM; in assay [4] it was 4.35 µM; in assay [5] it was 2.32 µM; in [8] it was more than 54.2 µM. In addition, the values for the TGI in assay [6], in [9] and in [7] were 2.43 µM, 9.19 µM and 5.62 µM, respectively.

Turning to `CC(C)(C)OC(=O)NCCCCCCCCCCn1c2c(c3ccccc3c1=O)C(=O)c1ccccc1-2`, the GI50 is 89.9 µM in assay [1]; more than 100 µM in assay [2]; more than 100 µM in assay [3]; 86.1 µM in assay [4]; more than 100 µM in assay [5]; more than 100 µM in assay [8]. The GI50 was 27.4 µM in assay [6], more than 100 µM in assay [9] and more than 100 µM in [7]. The TGI in [1], in assay [2], in assay [3], in assay [4], in assay [5] and in assay [8] was more than 100 µM each time. Moreover, the TGI in [6], in [9] and in assay [7] was more than 100 µM throughout.

In the case of `CCc1ncnc2cc(OCC3CO3)c(OC)cc12` (centres undefined), the TGI in assay [1] is 14.3 µM; in [2] it was 23.8 µM; in assay [3] it was 18.4 µM; in assay [4], 9.94 µM; in assay [5] it was more than 100 µM; in assay [8], 24.7 µM. The TGI in assay [6] was more than 80.3 µM; in [9], 42 µM; in [7], more than 100 µM.

For `C[n+]1c(/C=C/c2ccc(/C=N/NC(=O)c3ccc(C(=O)N/N=C/c4ccc(/C=C/c5cn6ccccc6[n+]5C)cc4)cc3)cc2)cn2ccccc21`, the TGI in [1], in assay [2], in [3], in [5], in assay [9] and in [7] was more than 100 µM throughout.

For the molecule `Cc1cc(O)cc(C)c1/C=C/c1cncc(C(=O)OC(C)(C)C)c1`, the GI50 was 18 µM in [1]; more than 24 µM in assay [2]; 8.34 µM in [3]; 7.95 µM in assay [4]; more than 16.8 µM in assay [5]; 12.2 µM in assay [8]. The GI50 in assay [6] is 11.6 µM; in assay [9], more than 16.6 µM; in [7], 14.6 µM. The TGI in [1] is more than 25 µM; in assay [2], more than 25 µM; in assay [3], more than 25 µM; in assay [4], 24.8 µM; in assay [5], more than 25 µM; in [8], more than 25 µM. In addition, the TGI in assay [6], in assay [9] and in [7] was more than 25 µM in each case.

For the molecule `COc1ccc(/C(=N/O)c2cc(OC)c(OC)c(OC)c2)c(OC)c1N`, the GI50 in [1] is 9.87 µM; in assay [2] it was 2.7 µM; in [3], 5.45 µM; in [4], 4.02 µM; in assay [5], 3.54 µM; in [8], 8.18 µM. Also, the GI50 was 3.14 µM in [6] and 4.22 µM in assay [9]. Besides, the TGI in [1], in assay [2], in assay [3], in assay [4], in [5] and in [8] was more than 100 µM throughout. Also, the TGI in assay [6] and in assay [9] was more than 100 µM in each case.

For the molecule `O=C(Sc1sc(=S)sc1SC(=O)c1ccccc1)c1ccccc1`, the TGI in [1], in assay [2], in [4], in assay [5], in assay [8] and in [6] was more than 100 µM throughout. Moreover, the TGI in [9] was more than 100 µM.

As for `COC(=O)C(=O)C(CC(=O)Nc1cccc(C(F)(F)F)c1)C(=O)OC` (centres undefined), the TGI in [1], in assay [2], in assay [3], in [4], in assay [8] and in assay [6] was more than 100 µM throughout. In assay [9], this molecule yielded a TGI of more than 100 µM.

Regarding `COc1cc(NC(C)CCCN)c2ncccc2c1Sc1ccc(Cl)cc1` (centres undefined), the GI50 is 1.64 µM in assay [1]; 1.77 µM in [2]; 1.59 µM in [3]; 1.9 µM in assay [5]; 1.72 µM in [8]; 1.77 µM in assay [7]. In addition, the TGI in assay [1] worked out at 3 µM; in [2], 3.34 µM; in assay [3], 3.19 µM; in assay [5], 3.5 µM; in assay [8], 3.1 µM; in assay [7], 3.42 µM.

On to `CCN(CC)CCC(=O)/C=C/c1ccc(C)cc1`, for which the TGI in assay [1] was 32.4 µM; in [2], 26.8 µM; in assay [3], 29.8 µM; in assay [5], 33 µM; in assay [8], 32.7 µM; in assay [6], more than 100 µM. Also, the TGI in assay [10] stood at 33.3 µM; in [9] it was 34 µM.

Consider `CC(C)(C)N=CN(C=C(c1ccccc1)c1ccccc1)C1CCCCC1`, for which the TGI is more than 100 µM in assay [1]; more than 100 µM in assay [5]; more than 100 µM in assay [8]; 39.9 µM in assay [6]; 51 µM in assay [10]; 35.8 µM in assay [9].
